Measured values reported in patent publication US8518913B2, “Phosphorous derivatives as chemokine receptor modulators” (Allergan, Inc., priority 2010, dated 2013).
Like-named read-outs stand apart in the source and are kept apart here.

Molecular target: T1, CCR2 receptor (Homo sapiens, UniProt P41597)
T1 construct: expressed in transfected cells
Assay: CCR2 calcium activity assay on FLIPR Tetra in HEK-Gqi5 cells stably expressing CCR2
Format: cell-based
Protocol: HEK-Gqi5 cells stably expressing CCR2 were cultured in (DMEM high glucose, 10% FBS, 1% PSA, 400 μg/ml geneticin and 50 μg/ml hygromycin. Appropriate positive control chemokines (MCP-1, MIP1A or RANTES) was used as the positive control agonist for screening compound-induced calcium activity assayed on the FLIPR^Tetra. The drug plates were prepared in 384-well microplates using the EP3 and the MultiPROBE robotic liquid handling systems. Compounds were synthesized and tested for CCR2 activity.

[1] = HEK-Gqi5 cells stably expressing CCR2, calcium activity, FLIPR Tetra
[2] = HEK-Gqi5 cells stably expressing CCR2, calcium activity, FLIPR Tetra, read-out: CCR2 IC50

T1 sequence (P41597 whole entry): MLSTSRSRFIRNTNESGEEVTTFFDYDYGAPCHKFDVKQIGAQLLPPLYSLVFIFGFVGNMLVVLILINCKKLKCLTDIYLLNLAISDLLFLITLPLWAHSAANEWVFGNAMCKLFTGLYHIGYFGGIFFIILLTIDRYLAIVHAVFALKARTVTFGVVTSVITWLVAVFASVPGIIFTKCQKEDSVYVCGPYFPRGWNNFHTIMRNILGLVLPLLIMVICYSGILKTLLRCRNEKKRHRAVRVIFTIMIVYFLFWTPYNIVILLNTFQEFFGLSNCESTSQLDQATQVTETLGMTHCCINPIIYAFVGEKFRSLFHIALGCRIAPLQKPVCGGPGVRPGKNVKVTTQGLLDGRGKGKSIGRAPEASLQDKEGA

CCR2 % ANTAGONISM [1] [%]	IC50 [2] [nM]	SMILES	IC50 [nM]
87	25	CP(=O)(c1ccc(Cl)cc1NS(=O)(=O)c1ccc(Cl)c(C(F)(F)F)c1)N1CCC(=O)CC1 (centres unmarked) [Compound 7, 4-Chloro-N-{5-chloro-2-[methyl(4-oxopiperidin-1-yl)phosphoryl]phenyl}-3-(trifluoromethyl)benzenesulfonamide]	
84	537	CCCCOP(=O)(c1ccc(Cl)cc1NS(=O)(=O)c1ccc(Cl)c(C(F)(F)F)c1)N1CCC(=O)CC1 (centres unmarked) [Compound 10, Butyl [4-chloro-2-({[4-chloro-3-(trifluoromethyl)phenyl]sulfonyl}amino)phenyl](4-oxopiperidin-1-yl)phosphinate]	
93	15	CP(=O)(c1ccc(Cl)cc1NS(=O)(=O)c1ccc(Cl)c(C(F)(F)F)c1)N1CCOCC1 (centres unmarked) [Compound 6, 4-Chloro-N-{5-chloro-2-[methyl(morpholin-4-yl)phosphoryl]phenyl}-3-(trifluoromethyl)benzenesulfonamide]	
92	125	CP(C)(=O)c1ccc(Cl)cc1NS(=O)(=O)c1ccc(Cl)c(C(F)(F)F)c1 [Compound 15, 4-Chloro-N-[5-chloro-2-(dimethylphosphoryl)phenyl]-3-(trifluoromethyl)benzenesulfonamide]	

SMILES	CCR2 % ANTAGONISM [1] [%]	IC50 [2] [nM]	IC50 [nM]
CCOP(C)(=O)c1ccc(Cl)cc1NS(=O)(=O)c1ccc(Cl)c(C(F)(F)F)c1 (centres unmarked) [Compound 1, Ethyl [4-chloro-2-({[4-chloro-3-(trifluoromethyl)phenyl]sulfonyl}amino)phenyl]methylphosphinate]	80		159
COP(=O)(c1ccc(Cl)cc1NS(=O)(=O)c1ccc(Cl)c(C(F)(F)F)c1)N1CCC(=O)CC1 (centres unmarked) [Compound 12, Methyl [4-chloro-2-({[4-chloro-3-(trifluoromethyl)phenyl]sulfonyl}amino)phenyl](4-oxopiperidin-1-yl)phosphinate]	95	124	
CCOP(=O)(c1ccc(Cl)cc1NS(=O)(=O)c1ccc(Cl)c(C(F)(F)F)c1)N1CCOCC1 (centres unmarked) [Compound 11, Ethyl [4-chloro-2-({[4-chloro-3-(trifluoromethyl)phenyl]sulfonyl}amino)phenyl]morpholin-4-ylphosphinate]	65	150	
